Test results from patent US20250134890A1, “ANTIMALARIAL HEXAHYDROPYRIMIDINE ANALOGUES” (UCB BIOPHARMA SRL, priority 2022, published 2025).
Where a name gives a salt, the structure may show the parent alone. Read-outs that look alike come from different tables or passages of the source.

System: Plasmodium falciparum: 3D7 strain
Experiment: P. falciparum 3D7 asexual blood stage assay (SYBR green readout)
Assay type: cell-based
Conditions: Plasmodium falciparum, P. falciparum 3D7 in human erythrocytes, 72 h incubation, SYBR green fluorescence
Outline: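 3D7-infected erythrocytes (5% haematocrit, 0.5% parasitaemia) were exposed 72 h at 37 °C under 1% O2/3% CO2 to a 20-point titration (50,000-15 nM final, 0.5% DMSO). Parasite DNA was read by SYBR green fluorescence after overnight lysis. Percent inhibition was set against mefloquine and DMSO, and EC50 came from a biphasic two-site fit.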

Structure (SMILES)	IC50 (3D7, Erythrocyte, 72 h) [nM]	IC50 (Erythrocyte, read-out: IC50) [nM]
C[C@H]1C[C@@H](N2C(=N)N[C@](C)(c3cccc(-c4cccnc4)c3Cl)CC2=O)CCO1 [Example 49, (6S)-6-[2-Chloro-3-(pyridin-3-yl)-phenyl]-2-imino-6-methyl-3-[(2S,4S)-2-methyltetrahydropyran-4-yl]hexahydropyrimidin-4-one trifluoroacetic acid salt]	30	
C[C@H]1C[C@@H](N2C(=N)N[C@](C)(c3cccc(-c4cccc(F)c4F)c3Cl)CC2=O)CCO1 [Example 50, (6S)-6-[2-Chloro-3-(2,3-difluoro-phenyl)phenyl]-2-imino-6-methyl-3-[(2S,4S)-2-methyltetrahydro-pyran-4-yl]hexahydropyrimidin-4-one trifluoroacetic acid salt]	84	
C[C@H]1C[C@@H](N2C(=N)N[C@](C)(c3cccc(-c4ccc(F)cc4F)c3Cl)CC2=O)CCO1 [Example 51, (6S)-6-[2-Chloro-3-(2,4-difluoro-phenyl)phenyl]-2-imino-6-methyl-3-[(2S,4S)-2-methyltetrahydro-pyran-4-yl]hexahydropyrimidin-4-one trifluoroacetic acid salt]	95	
Cc1cc(-c2cccc([C@]3(C)CC(=O)N([C@H]4CCO[C@@H](C)C4)C(=N)N3)c2Cl)n(C)n1 [Example 52, (6S)-6-[2-Chloro-3-(2,5-dimethyl-pyrazol-3-yl)phenyl]-2-imino-6-methyl-3-[(2S,4S)-2-methyl-tetrahydropyran-4-yl]hexahydro-pyrimidin-4-one trifluoroacetic acid salt]	438	
C[C@H]1C[C@@H](N2C(=N)N[C@](C)(c3cccc(-c4cccc(-c5ccn[nH]5)c4)c3Cl)CC2=O)CCO1 [Example 53, (6S)-6-{2-Chloro-3-[3-(1H-pyrazol-5-yl)phenyl]phenyl}-2-imino-6-methyl-3-[(2S,4S)-2-methyl-tetrahydropyran-4-yl]hexahydro-pyrimidin-4-one trifluoroacetic acid salt]	25	
C[C@H]1C[C@@H](N2C(=N)N[C@](C)(c3cccc(-c4cnoc4)c3Cl)CC2=O)CCO1 [Example 54, (6S)-6-[2-Chloro-3-(isoxazol-4-yl)-phenyl]-2-imino-6-methyl-3-[(2S,4S)-2-methyltetrahydropyran-4-yl]hexahydropyrimidin-4-one trifluoroacetic acid salt]	42	
C[C@H]1C[C@@H](N2C(=N)N[C@](C)(c3cccc(-c4ccc(Cl)nc4)c3Cl)CC2=O)CCO1 [Example 55, (6S)-6-[2-Chloro-3-(6-chloro-pyridin-3-yl)phenyl]-2-imino-6-methyl-3-[(2S,4S)-2-methyl-tetrahydropyran-4-yl]hexahydro-pyrimidin-4-one trifluoroacetic acid salt]	11	
C[C@H]1C[C@@H](N2C(=N)N[C@](C)(c3cccc(-c4cccc5cnn(C)c45)c3Cl)CC2=O)CCO1 [Example 56, (6S)-6-[2-Chloro-3-(1-methyl-indazol-7-yl)phenyl]-2-imino-6-methyl-3-[(2S,4S)-2-methyl-tetrahydropyran-4-yl]hexahydro-pyrimidin-4-one trifluoroacetic acid salt]	43	
C[C@H]1C[C@@H](N2C(=N)N[C@](C)(c3cccc(-c4ccncc4Cl)c3Cl)CC2=O)CCO1 [Example 57, (6S)-6-[2-Chloro-3-(3-chloro-pyridin-4-yl)phenyl]-2-imino-6-methyl-3-[(2S,4S)-2-methyl-tetrahydropyran-4-yl]hexahydro-pyrimidin-4-one trifluoroacetic acid salt]	61	
COc1cncc(-c2cccc([C@]3(C)CC(=O)N([C@H]4CCO[C@@H](C)C4)C(=N)N3)c2Cl)c1 [Example 58, (6S)-6-[2-Chloro-3-(5-methoxy-pyridin-3-yl)phenyl]-2-imino-6-methyl-3-[(2S,4S)-2-methyl-tetrahydropyran-4-yl]hexahydro-pyrimidin-4-one trifluoroacetic acid salt]	124	
COc1cc(-c2cccc([C@]3(C)CC(=O)N([C@H]4CCO[C@@H](C)C4)C(=N)N3)c2Cl)ccn1 [Example 59, (6S)-6-[2-Chloro-3-(2-methoxy-pyridin-4-yl)phenyl]-2-imino-6-methyl-3-[(2S,4S)-2-methyl-tetrahydropyran-4-yl]hexahydro-pyrimidin-4-one trifluoroacetic acid salt]	61	
C[C@H]1C[C@@H](N2C(=N)N[C@](C)(c3cccc(-c4ccc(C#N)cc4)c3Cl)CC2=O)CCO1 [Example 60, 4-(2-Chloro-3-{(4S)-2-imino-4-methyl-1-[(2S,4S)-2-methyl-tetrahydropyran-4-yl]-6-oxo-hexahydropyrimidin-4-yl}phenyl)-benzonitrile trifluoroacetic acid salt]	297	
CN1CCC(N2C(=N)N[C@](C)(c3cccc(-c4cccc(Cl)c4)c3Cl)CC2=O)CC1 [Example 90, (6S)-6-[2-Chloro-3-(3-chloro-phenyl)phenyl]-2-imino-6-methyl-3-(1-methylpiperidin-4-yl)-hexahydropyrimidin-4-one]		122
CN1CCC(N2C(=N)N[C@](C)(c3cccc(-c4ccc(OC(F)(F)F)cc4Cl)c3Cl)CC2=O)CC1 [Example 91, (6S)-6-{2-Chloro-3-[2-chloro-4-(trifluoromethoxy)phenyl]phenyl}-2-imino-6-methyl-3-(1-methyl-piperidin-4-yl)hexahydropyrimidin-4-one]		6400
CN1CCC(N2C(=N)N[C@](C)(c3cccc(-c4cc(Cl)ccc4Cl)c3Cl)CC2=O)CC1 [Example 92, (6S)-6-[2-Chloro-3-(2,5-dichloro-phenyl)phenyl]-2-imino-6-methyl-3-(1-methylpiperidin-4-yl)-hexahydropyrimidin-4-one]		50
CN1CCC(N2C(=N)N[C@](C)(c3cccc(-c4ccc(F)cc4F)c3Cl)CC2=O)CC1 [Example 93, (6S)-6-[2-Chloro-3-(2,4-difluoro-phenyl)phenyl]-2-imino-6-methyl-3-(1-methylpiperidin-4-yl)-hexahydropyrimidin-4-one]		112
C[C@H]1C[C@@H](N2C(=N)N[C@](C)(c3cccc(-c4cn(-c5cc(F)c(F)cc5F)nn4)c3Cl)CC2=O)CCO1 [Example 109, (6S)-6-{2-Chloro-3-[1-(2,4,5-trifluorophenyl)-1,2,3-triazol-4-yl]-phenyl}-2-imino-6-methyl-3-[(2S,4S)-2-methyltetrahydropyran-4-yl]hexahydropyrimidin-4-one hydrochloride]	171	
C[C@H]1C[C@@H](N2C(=N)N[C@](C)(c3cccc(-c4cn(CC(F)(F)F)nn4)c3Cl)CC2=O)CCO1 [Example 110, (6S)-6-{2-Chloro-3-[1-(2,2,2-trifluoroethyl)-1,2,3-triazol-4-yl]-phenyl}-2-imino-6-methyl-3-[(2S,4S)-2-methyltetrahydropyran-4-yl]hexahydropyrimidin-4-one hydrochloride]	13	
C[C@H]1C[C@@H](N2C(=N)N[C@](C)(c3cccc(-c4cn(-c5cccc(F)c5)nn4)c3Cl)CC2=O)CCO1 [Example 111, (6S)-6-{2-Chloro-3-[1-(3-fluoro-phenyl)-1,2,3-triazol-4-yl]phenyl}-2-imino-6-methyl-3-[(2S,4S)-2-methyltetrahydropyran-4-yl]-hexahydropyrimidin-4-one hydrochloride]	66	
C[C@H]1C[C@@H](N2C(=N)N[C@](C)(c3cccc(-c4cn(CCN(C)C)nn4)c3Cl)CC2=O)CCO1 [Example 114, (6S)-6-(2-Chloro-3-{1-[2-(dimethylamino)ethyl]-1,2,3-triazol-4-yl}phenyl)-2-imino-6-methyl-3-[(2S,4S)-2-methyl-tetrahydropyran-4-yl]hexahydro-pyrimidin-4-one trifluoroacetic acid salt]	938	
C[C@H]1C[C@@H](N2C(=N)N[C@](C)(c3cccc(-c4cn([C@@H](C)c5cccnc5)nn4)c3Cl)CC2=O)CCO1 [Example 115, (6S)-6-(2-Chloro-3-{1-[(1S)-1-(pyridin-3-yl)ethyl]-1,2,3-triazol-4-yl}phenyl)-2-imino-6-methyl-3-[(2S,4S)-2-methyltetrahydropyran-4-yl]hexahydropyrimidin-4-one trifluoroacetic acid salt]	210	
C[C@H]1C[C@@H](N2C(=N)N[C@](C)(c3cccc(-c4cn(CC5CC(F)(F)C5)nn4)c3Cl)CC2=O)CCO1 [Example 116, (6S)-6-(2-Chloro-3-{1-[(3,3-difluorocyclobutyl)methyl]-1,2,3-triazol-4-yl}phenyl)-2-imino-6-methyl-3-[(2S,4S)-2-methyl-tetrahydropyran-4-yl]hexahydro-pyrimidin-4-one trifluoroacetic acid salt]	208	
C[C@H]1C[C@@H](N2C(=N)N[C@](C)(c3cccc(-c4cn(Cc5cccnc5)nn4)c3Cl)CC2=O)CCO1 [Example 117, (6S)-6-{2-Chloro-3-[1-(pyridin-3-ylmethyl)-1,2,3-triazol-4-yl]-phenyl}-2-imino-6-methyl-3-[(2S,4S)-2-methyltetrahydropyran-4-yl]hexahydropyrimidin-4-one trifluoroacetic acid salt]	371	
C[C@H]1C[C@@H](N2C(=N)N[C@](C)(c3cccc(-c4cn(CCN5CCCC5)nn4)c3Cl)CC2=O)CCO1 [Example 118, (6S)-6-(2-Chloro-3-{1-[2-(pyrrolidin-1-yl)ethyl]-1,2,3-triazol-4-yl}phenyl)-2-imino-6-methyl-3-[(2S,4S)-2-methyl-tetrahydropyran-4-yl]hexahydro-pyrimidin-4-one trifluoroacetic acid salt]	1010	
C[C@H]1C[C@@H](N2C(=N)N[C@](C)(c3cccc(-c4cn(-c5ccncc5)nn4)c3Cl)CC2=O)CCO1 [Example 119, (6S)-6-{2-Chloro-3-[1-(pyridin-4-yl)-1,2,3-triazol-4-yl]phenyl}-2-imino-6-methyl-3-[(2S,4S)-2-methyltetrahydropyran-4-yl]-hexahydropyrimidin-4-one trifluoroacetic acid salt]	296	
